Measurements: patent US20170114128A1, “USE OF TGF-BETA ANTAGONISTS OF TREAT TYPE-2 DIABETES” (ALBERT EINSTEIN COLLEGE OF MEDICINE, INC., priority 2014, published 2017)

Key:
[1] = system: hypothalamic NF-κB signaling components; assay: Western blots of hypothalamic NF-κB signaling components after third-ventricle TGF-β1; assay type: in vivo, mice
Description: Induction of hypothalamic NF-κB activation by TGF-β: TGF-β is often appreciated for anti-inflammatory feature in immune response, but, depending on physiological context and particularly in pathological conditions, TGF-β can be inflammatory (28)—although it is atypical and many details are still unclear. Here, because NF-κB has been known to atypically mediate hypothalamic inflammation in obesity or aging (12-14,18-20,23-27), it was analyzed if NF-κB signaling components were different in the hypothalamus of mice with third-ventricle injection of TGF-β vs. vehicle. […] First, since IκBα loss is the specific step that immediately liberates cytoplasmic NF-κB for nuclear translocation, and NF-κB subunit RelA in the nucleus undergoes phosphorylation, RelA phosphorylation was measured in mice injected with TGF-β1 or vehicle. […] Second, it was evaluated if TGF-β1-triggered NF-κB activation could be involved in HFD-induced hypothalamic inflammation. By employing heterogeneous Tgfb1 knockout (Tgfb1 +/−) mice, whether haplodeficiency of Tgfb1 in this mouse model could affect the induction of hypothalamic inflammation by HFD feeding was examined To do so, adult Tgfb1+/− mice and littermate WT controls were subjected to HFD feeding for three weeks, and chow feeding was included to provide as dietary control. Indeed, hypothalamic Tgfb1 mRNA in chow-fed Tgfb1+/− mice dropped by ˜50% compared to chow-fed WT (FIG. 4b), which was consistent with the literature (35). […] Using these hypothalamic samples, we examined mRNA levels of a list of inflammation-related molecules including TNFα, IL-6, SOCS3, TLR4, PTP1B, PKCλ and PKCι. […] Therefore, brain TGF-β excess plays a role in inducing diet-induced hypothalamic inflammation.
Thus, while kinase (e.g., IKK)-induced IκBα phosphorylation is a crucial, rapid signaling reaction in classical inflammation, this process is not primarily critical in TGF-β1-induced hypothalamic inflammation.
To further assess this point, it was asked if the effects of brain TGF-β excess could be impaired by ablation of a signaling component, such as toll-like receptor-4 (TLR4) or myeloid differentiation primary response gene 88 (MyD88), because they employ kinase signaling to induce IκBα phosphorylation and thus NF-κB activation. […]
Protein, mRNA and peptide analyses. […] Quantification of Western blots was processed with Image J. Total RNA was extracted from hypothalamic tissue using TRIzol® (Invitrogen), and cDNA was synthesized using M-MLV RT System (Promega). Using SYBR® Green PCR Master Mix (Applied Biosystems), expression levels of target genes were analyzed via PCR amplification and quantification. […] Serum and CSF TGF-β content were measured using TGF-β ELISA kit (R&D Systems).

Myd88 knockout mice = assay: Third-ventricle TGF-β1 delivery in Myd88 knockout mice; assay type: in vivo; settings: hypothalamic third ventricle; data not shown
From the text: To further assess this point, it was asked if the effects of brain TGF-β excess could be impaired by ablation of a signaling component, such as toll-like receptor-4 (TLR4) or myeloid differentiation primary response gene 88 (MyD88), because they employ kinase signaling to induce IκBα phosphorylation and thus NF-κB activation. Using a genetic model, T1r4 knockout (T1r4−/−) mice, TGF-β1 or vehicle was delivered into the hypothalamic third ventricle of these mice and littermate WT mice via pre-implanted cannula. Vehicle-injected T1r4−/− mice and WT mice were both normal in glucose and insulin tolerance tests (FIG. 4a, b). […] Altogether, brain TGF-β excess may use a mechanism that directly targets IκBα rather than upstream kinase signaling to activate hypothalamic NF-κB.

[2] = TGF-β1 concentrations in CSF and blood after third-ventricle injection; assay type: in vivo, mice
Description: Brain TGF-β excess impairs glucose tolerance: To study the metabolic effects of brain TGF-β excess, a pharmacological approach was first used by which TGF-β was delivered into the hypothalamic third ventricle of normal C57BL/6 mice via pre-implanted cannula. To optimize the dosage, different doses of TGF-β1 (0, 0.5, 1.0, and 4.0 ng) were injected, and TGF-β1 concentrations measured in the CSF at various time points post-injection. […] Based on this condition, overnight-fasted mice were given intra-third ventricle injections of TGF-β1 in these doses, one injection at night after food was removed, and the second injection in the following morning at 4 hours prior to glucose tolerance test (GTT). […] In sum, a pharmacological induction of brain TGF-β excess can acutely cause pre-diabetic changes including glucose intolerance and insulin resistance.
Protein, mRNA and peptide analyses. Hypothalami were isolated as previously described (14). Tissue lysis, SDS/PAGE and Western blotting were performed as previously described (19). Primary antibodies in Western blots included anti-IκBα (Santa Cruz, #SC847, 1:500), anti-p-TAK1 (Cell Signaling, #4531, 1:1000), anti-p-IκBα (Cell Signaling, #2859, 1:1000), anti-RelA (Cell Signaling, #3039, 1:1000), anti-p-RelA (Cell Signaling, #4764, 1:1000), and anti-β-actin (Cell Signaling, #4967S, 1:1000), and secondary antibodies were HRP-conjugated anti-rabbit or goat antibody (Pierce, 1:2000). Quantification of Western blots was processed with Image J. Total RNA was extracted from hypothalamic tissue using TRIzol® (Invitrogen), and cDNA was synthesized using M-MLV RT System (Promega). Using SYBR® Green PCR Master Mix (Applied Biosystems), expression levels of target genes were analyzed via PCR amplification and quantification. GAPDH or TBP mRNA levels were used for normalization. […] Serum and CSF TGF-β content were measured using TGF-β ELISA kit (R&D Systems).

[3] = third-ventricle injection vs vehicle

## TGF-β1: transforming growth factor-β1 (Sigma), cytokine dissolved in artificial cerebrospinal fluid for third-ventricle injection
[1]; mouse, in vivo
  hypothalamic TAK1 phosphorylation: did not lead to hypothalamic TAK1 phosphorylation
[1]; normalized by IκBα protein levels
  phosphorylated levels of IκBα: did not change
[1]; [3]
  hypothalamic IκBα protein levels: significant reduction
  hypothalamic RelA phosphorylation: significantly increased
Myd88 knockout mice
  effect of lack of Myd88 on glucose or insulin intolerance following TGF-β1 delivery: did not lead to a significant reduction
[2]; 60 min post-injection
  CSF TGF-β1 concentration relative to basal concentration: roughly 2 fold
[2]; doses 0.5, 1.0, 4.0 ng in third ventricle
  blood TGF-β1 concentration: None of these doses significantly increased
[2]; post-injection, third ventricle, 0.5-4.0 ng, dose-dependent
  time of peak increase of CSF TGF-β1 concentration: 15 min
